Series [1] concerns Mycosphaerella graminicola (Septoria tritici). The series can be described thus: Comparative: Mycosphaerella graminicola (Septoria tritici) on wheat / preventative, emulsifiable concentrate. To be noted: rate of application 60 ppm, Mycosphaerella graminicola on wheat cv. Riband, 16 to 19 days after application. Format: in vivo.
Another series has as its system Venturia inaequalis. The series can be described thus: Comparative: Venturia inaequalis / apple / preventative (Scab on apple). The class given is in vivo. The settings on record: rate of application 200 ppm, Venturia inaequalis on apple seedlings, emulsifiable concentrate, 11-13 days after application.
Series [2] concerns Colletotrichum lagenarium. The series can be described thus: Comparative: Colletotrichum lagenarium / cucumber / preventative (Anthracnose). Format: in vivo. The settings on record: rate of application 200 ppm, Colletotrichum lagenarium on cucumber cv. Wisconsin, emulsifiable concentrate, 6-8 days after application.
The subject of another series is Botrytis cinerea. Kind of series: Comparative: Botrytis cinerea / tomato / preventative. The settings on record: rate of application 200 ppm, Botrytis cinerea on tomato, emulsifiable concentrate, 5-6 days after application. The class given is in vivo.
Series [3] has as its system Botryotinia fuckeliana (Botrytis cinerea). The series can be described thus: Botryotinia fuckeliana (Botrytis cinerea) / liquid culture (Gray mould). Format: cell-based. To be noted: liquid culture Vogels broth, 3-4 days after application, read-out: control of Botryotinia fuckeliana (inhibition of growth, photometric).
Series [4] concerns Glomerella lagenarium (Colletotrichum lagenarium). Kind of series: Glomerella lagenarium (Colletotrichum lagenarium) / liquid culture (Anthracnose). Format: cell-based. The settings on record: Colletotrichum orbiculare, liquid culture PDB, 3-4 days after application, read-out: control of Glomerella lagenarium (inhibition of growth, photometric).
A further series deals with Fusarium culmorum. Kind of series: microbe, parasite or virus in culture. The class given is cell-based. The settings on record: read-out: control of Fusarium culmorum (inhibition of growth, photometric).
Series [5] has as its system Mycosphaerella graminicola (Septoria tritici). Kind of series: Mycosphaerella graminicola (Septoria tritici) on wheat / preventative. Format: in vivo. The settings on record: Zymoseptoria tritici, wheat plants cv. Riband, preventative spray, 16 to 19 days after application, read-out: control of Mycosphaerella graminicola compared to untreated control.
Series [6] relates to Monographella nivalis (Microdochium nivale). The series can be described thus: Monographella nivalis (Microdochium nivale) / liquid culture (foot rot cereals). Format: cell-based. To be noted: liquid culture PDB, 4 to 5 days after application, read-out: control of Monographella nivalis (inhibition of growth, photometric).

A value given as a limit tells only on which side of the number the result lay.

Consider `CC1(C)N=C(c2cnc3c(F)cccc3c2)c2cccc(F)c2S1` [Comparative compound A, reference compound], for which the “Efficacy (% control)” value worked out at 11 % control in [1], 100 % control with Venturia inaequalis, 80 % control in series [2] and 95 % control in the series with Botrytis cinerea.
One may read the inhibition as the relative decrease from the control value, in per cent. In general, melting point refers to the temperature of the solid-liquid transition. As for `Cc1ccc2c(c1F)SC(C)(C)N=C2c1cnc2c(F)cccc2c1` [Compound E.08, 8-fluoro-4-(8-fluoro-3-quinolyl)-2,2,7-trimethyl-1,3-benzothiazine], the melting point fell in the range of 159 to 161 °C. Besides, in series [1], the “Efficacy (% control)” value is 89 % control. Besides, the inhibition at 20 ppm in series [3] is no less than 80%. In series [4], the inhibition at 20 ppm is no less than 80%. Moreover, the inhibition at 20 ppm in the series on Fusarium culmorum was no less than 80%. Further, in the series on Venturia inaequalis, the “Efficacy (% control)” value is recorded as 80 % control. The pest or weed control at 60 ppm in series [5] was no less than 80%. In series [6], the inhibition at 20 ppm was no less than 80%. Moreover, in the series with Botrytis cinerea, the “Efficacy (% control)” value is listed as 97 % control.
Turning to `Cc1ccc2c(c1Cl)SC(C)(C)N=C2c1cnc2c(F)cccc2c1` [Compound E.13, 8-chloro-4-(8-fluoro-3-quinolyl)-2,2,7-trimethyl-1,3-benzothiazine], the “Efficacy (% control)” value in series [1] was determined as 96 % control. Moreover, the inhibition at 20 ppm (in [3]; in [4]; with Fusarium culmorum; in series [6]) was no less than 80% throughout. The pest or weed control at 60 ppm in [5] was no less than 80%.
With `Cc1cccc2c1SC(C)(C)N=C2c1cnc2c(F)cccc2c1` [Compound E.14, 4-(8-fluoro-3-quinolyl)-2,2,8-trimethyl-1,3-benzothiazine], the “Efficacy (% control)” value was 83 % control in [1], 100 % control with Venturia inaequalis, 97 % control in [2] and 93 % control in the series on Botrytis cinerea. Besides, the inhibition at 20 ppm (in series [3]; in series [4]; with Fusarium culmorum; in series [6]) was no less than 80% throughout. For the same compound, the pest or weed control at 60 ppm in series [5] was no less than 80%.
In the case of `CC1(C)N=C(c2cnc3c(F)cccc3c2)c2ccc(F)c(F)c2S1` [E.03, 7,8-difluoro-4-(8-fluoro-3-quinolyl)-2,2-dimethyl-1,3-benzothiazine], the inhibition at 20 ppm (in series [3]; in series [4]; with Fusarium culmorum; in [6]) was no less than 80% throughout. Moreover, the pest or weed control at 60 ppm in series [5] is no less than 80%.
For the compound `CSc1cccc2c1SC(C)(C)N=C2c1cnc2c(F)cccc2c1` [E.04, 4-(8-fluoro-3-quinolyl)-2,2-dimethyl-8-methylsulfanyl-1,3-benzothiazine], the inhibition at 20 ppm (in [3]; in series [4]; with Fusarium culmorum; in series [6]) was no less than 80% each time.
`CC1(C)N=C(c2cnc3c(F)cccc3c2)c2ccc(Cl)c(Cl)c2S1` [E.05, 7,8-dichloro-4-(8-fluoro-3-quinolyl)-2,2-dimethyl-1,3-benzothiazine]: the inhibition at 20 ppm (in [3]; in series [4]; with Fusarium culmorum; in [6]) was no less than 80% each time. The pest or weed control at 60 ppm in [5] was no less than 80%.
`Cc1cccc2c1S[C@](C)(C(F)F)N=C2c1cnc2c(F)cccc2c1` [E.06, (2R)-2-(difluoromethyl)-4-(8-fluoro-3-quinolyl)-2,8-dimethyl-1,3-benzothiazine]: the inhibition at 20 ppm (in series [3]; in series [4]; in the series with Fusarium culmorum; in [6]) was no less than 80% throughout.
On to `CC1(C(F)F)N=C(c2cnc3c(F)cccc3c2)c2cccc(Cl)c2S1` (centres unmarked) [E.09, 8-chloro-2-(difluoromethyl)-4-(8-fluoro-3-quinolyl)-2-methyl-1,3-benzothiazine], for which the inhibition at 20 ppm (in [3]; in series [4]; in the series on Fusarium culmorum; in series [6]) was no less than 80% in each case.
Take `Cc1ccc2c(c1C#N)SC(C)(C)N=C2c1cnc2c(F)cccc2c1` [E.10, 4-(8-fluoro-3-quinolyl)-2,2,7-trimethyl-1,3-benzothiazine-8-carbonitrile]: the inhibition at 20 ppm (in series [3]; in the series with Fusarium culmorum) was no less than 80% each time.
In the case of `Cc1ccc2c(c1C)SC(C)(C)N=C2c1cnc2c(F)cccc2c1` [E.11, 4-(8-fluoro-3-quinolyl)-2,2,7,8-tetramethyl-1,3-benzothiazine], the inhibition at 20 ppm (in series [3]; in [4]; in the series on Fusarium culmorum; in [6]) was no less than 80% in each case. The pest or weed control at 60 ppm in series [5] is no less than 80%.
For the compound `Cc1cccc2c1SC(C)(C(F)F)N=C2c1cnc2c(F)cccc2c1` (centres unmarked) [E.15, 2-(difluoromethyl)-4-(8-fluoro-3-quinolyl)-2,8-dimethyl-1,3-benzothiazine], the inhibition at 20 ppm (in [3]; in [4]; in the series on Fusarium culmorum; in series [6]) was no less than 80% in each case.
Take `Cc1ccc2c(c1F)SC(C)(C)N=C2c1cnc2c(F)c(F)ccc2c1` [E.16, 4-(7,8-difluoro-3-quinolyl)-8-fluoro-2,2,7-trimethyl-1,3-benzothiazine]: the inhibition at 20 ppm (in [3]; in the series on Fusarium culmorum; in [6]) was no less than 80% in each case. In addition, in series [5], the pest or weed control at 60 ppm was no less than 80%.
Consider `CC1(C)N=C(c2cnc3c(F)cccc3n2)c2cccc(Cl)c2S1` [E.17, 8-chloro-4-(5-fluoroquinoxalin-2-yl)-2,2-dimethyl-1,3-benzothiazine], for which the inhibition at 20 ppm (in series [3]; in series [4]; in the series with Fusarium culmorum; in [6]) was no less than 80% in each case.
Turning to `CC1(Cc2ccc(Cl)nc2)N=C(c2cnc3c(F)c(F)ccc3c2)c2cccc(Cl)c2S1` (centres unmarked) [E.18, 8-chloro-2-[(6-chloro-3-pyridyl)methyl]-4-(7,8-difluoro-3-quinolyl)-2-methyl-1,3-benzothiazine], the inhibition at 20 ppm in series [3], in [4] and in series [6] was no less than 80% in each case.
On to `CC1(Cc2ccc(Cl)nc2)N=C(c2cnc3c(F)cccc3c2)c2cccc(Cl)c2S1` (centres unmarked) [E.19, 8-chloro-2-[(6-chloro-3-pyridyl)methyl]-4-(8-fluoro-3-quinolyl)-2-methyl-1,3-benzothiazine], for which the inhibition at 20 ppm (in [3]; in series [4]; in the series on Fusarium culmorum; in series [6]) was no less than 80% throughout.
In turn, `Cc1nc2c(F)cccc2cc1C1=NC(C)(C)Sc2c(Cl)cccc21` [E.20, 8-chloro-4-(8-fluoro-2-methyl-3-quinolyl)-2,2-dimethyl-1,3-benzothiazine] returned a melting point of 134 to 136 °C. Further, the inhibition at 20 ppm in series [3] is no less than 80%. Also, the inhibition at 20 ppm in [4] was no less than 80%. For the same compound, the inhibition at 20 ppm in series [6] is no less than 80%.
For the compound `Cc1c(Cl)ccc2c1SC(C)(C)N=C2c1cnc2c(F)c(F)ccc2c1` [E.21, 7-chloro-4-(7,8-difluoro-3-quinolyl)-2,2,8-trimethyl-1,3-benzothiazine], the melting point was 161 to 163 °C. Also, the inhibition at 20 ppm in series [3] was no less than 80%. For the same compound, in the series on Fusarium culmorum, the inhibition at 20 ppm is no less than 80%. The inhibition at 20 ppm in series [6] was no less than 80%.
With `Cc1c(C#N)ccc2c1SC(C)(C)N=C2c1cnc2c(F)c(F)ccc2c1` [E.22, 4-(7,8-difluoro-3-quinolyl)-2,2,8-trimethyl-1,3-benzothiazine-7-carbonitrile], the melting point lay in the range of 216 to 218 °C. For the same compound, the inhibition at 20 ppm in series [3] is no less than 80%.
Regarding `Cc1c(C#N)ccc2c1SC(C)(C)N=C2c1cnc2c(F)cccc2c1` [E.23, 4-(8-fluoro-3-quinolyl)-2,2,8-trimethyl-1,3-benzothiazine-7-carbonitrile], the melting point lay in the range of 88 to 90 °C. The inhibition at 20 ppm in series [3] is no less than 80%. Moreover, the inhibition at 20 ppm with Fusarium culmorum is no less than 80%. The inhibition at 20 ppm in series [6] is no less than 80%.
As for `COc1c(Cl)ccc2c1SC(C)(C)N=C2c1cnc2c(F)cccc2c1` [E.24, 7-chloro-4-(8-fluoro-3-quinolyl)-8-methoxy-2,2-dimethyl-1,3-benzothiazine], the inhibition at 20 ppm (in series [3]; in the series with Fusarium culmorum; in [6]) was no less than 80% each time.
In turn, `Cc1c(Cl)ccc2c1SC(C)(C)N=C2c1cnc2c(F)cccc2c1` [E.25, 7-chloro-4-(8-fluoro-3-quinolyl)-2,2,8-trimethyl-1,3-benzothiazine] gave a melting point of 68 to 70 °C. For the same compound, in series [3], the inhibition at 20 ppm is no less than 80%. For the same compound, in series [4], the inhibition at 20 ppm is no less than 80%. In the series on Fusarium culmorum, the inhibition at 20 ppm is no less than 80%. For the same compound, in [5], the pest or weed control at 60 ppm is no less than 80%.

Values taken from patent publication US20240208962A1, “MICROBIOCIDAL QUINOLINE/QUINOXALINE BENZOTHIAZINE DERIVATIVES” (SYNGENTA CROP PROTECTION AG, priority 2021, published 2024).
